In US8835617B2, “Polynucleotides encoding a human TRIM-Cyp fusion polypeptide, compositions thereof, and methods of using same” (priority 2008, dated 2014):

How the values were obtained:
cell-associated HIV-1 = assay: hCD4+-Rag2-/-γc-/- mice infected with cell-associated HIV-1; assay type: in vivo
Protocol: Furthermore, the previous infections were initiated with cell-free HIV-1. […] Untransduced (GFP^−) CD4^+ cells from the same donor were cultured side by side and infected with CXCR4-tropic HIV-1 prior to infection of reconstituted mice. […] Peripheral blood was analyzed one, two, and three weeks after infection and mice were sacrificed three weeks after infection (FIG. 71A).

HIV-1 = details: quantitative PCR, Jurkat
Protocol: Since the objective was to engineer a fully human HIV-1 restriction factor, hCypA was the fused at 10 different positions along the length of hT5α (FIG. 44A).
Total cellular DNA was extracted from 2×10^6 Jurkat T cells using the DNeasy Blood and Tissue kit (Qiagen). qPCR was performed with the Applied Biosystems 7900HT system, using 250 ng total DNA and Taqman Gene Expression master mix (Applied Biosystems). Each experimental condition was performed in triplicate and data analyzed using the SDS software, version 2.2.2 (Applied Biosystems).

Substance: hT5Cyp: human TRIM5α fused at serine 322 to human cyclophilin A, SEQ ID NO:12
- p24^+ of total human T cells in the infected thymus (cell-associated HIV-1; mouse, in vivo): 0.9%
- protection of total CD3^+ T cell numbers in the thymus (cell-associated HIV-1; mouse, in vivo): 3.7 fold
- CD3^+ T cells in thymus (cell-associated HIV-1; n=2): 2×10^7
- reduction in mean viral load vs hT5CypH126Q (cell-associated HIV-1; one week post-infection): 9.7 fold
- CD4^+ T cell numbers relative to initial levels (cell-associated HIV-1; peripheral blood, three weeks post-infection): ≥ 40%
- p24^+ of GFP^hi cells (cell-associated HIV-1; thymus): few
- p24^+ of GFP^neg/lo cells (cell-associated HIV-1; thymus): 3.2%
- reduction in total numbers of GFP^− p24^+ cells vs hT5CypH126Q (cell-associated HIV-1; thymus): > 3.3 fold
- reduction in mean viral load vs hT5CypH126Q (cell-associated HIV-1; two weeks post-infection): 4.3 fold
- accumulation of viral cDNA (HIV-1): blocked the accumulation of viral cDNA
